Assay [1] deals with tubulin (colchicine site) (Bos taurus, UniProt P81947+Q6B856). In words: Inhibition of [3H]colchicine binding to tubulin. Further details: species or system bovine. The note with it: read-out: colchicine binding inhibition (%).
In assay [2] the test system is OVCAR-8 cells. As to the kind of experiment: Cell cycle analysis by FACS. The assay is classed as cell-based, human. Conditions: OVCAR-8, 1.0 μM, 24 h, P < 0.05.
Assay [3] has as its system OVCAR-8. In words: Cytotoxic activity, OVCAR-8 cells. The assay is classed as cell-based. The note with it: Homo sapiens, OVCAR-8, 96 h, read-out: EC50 OVCAR-8.
Assay [4] has as its system NCI/ADR-RES. In words: Cytotoxic activity, NCI/ADR-RES cells. The format is cell-based. The note with it: Homo sapiens, 96 h, read-out: EC50 NCI/ADR-RES.

Where a name gives a salt, the structure may show the parent alone.

The inhibition is the share of the control response that was lost under treatment.

Chain of tubulin (colchicine site) (P81947 whole entry): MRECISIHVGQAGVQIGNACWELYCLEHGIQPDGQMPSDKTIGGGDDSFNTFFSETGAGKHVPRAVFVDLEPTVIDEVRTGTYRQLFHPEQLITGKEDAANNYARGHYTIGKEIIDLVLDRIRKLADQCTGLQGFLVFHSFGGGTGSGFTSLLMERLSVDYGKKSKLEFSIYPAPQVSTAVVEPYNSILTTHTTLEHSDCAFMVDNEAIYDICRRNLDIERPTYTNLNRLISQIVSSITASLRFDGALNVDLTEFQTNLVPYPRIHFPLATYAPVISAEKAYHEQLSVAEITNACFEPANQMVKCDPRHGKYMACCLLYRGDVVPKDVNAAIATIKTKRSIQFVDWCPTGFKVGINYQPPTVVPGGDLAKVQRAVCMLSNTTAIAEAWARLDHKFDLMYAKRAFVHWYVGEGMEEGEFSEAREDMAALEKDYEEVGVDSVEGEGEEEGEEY
Chain of tubulin (colchicine site) (Q6B856 whole entry): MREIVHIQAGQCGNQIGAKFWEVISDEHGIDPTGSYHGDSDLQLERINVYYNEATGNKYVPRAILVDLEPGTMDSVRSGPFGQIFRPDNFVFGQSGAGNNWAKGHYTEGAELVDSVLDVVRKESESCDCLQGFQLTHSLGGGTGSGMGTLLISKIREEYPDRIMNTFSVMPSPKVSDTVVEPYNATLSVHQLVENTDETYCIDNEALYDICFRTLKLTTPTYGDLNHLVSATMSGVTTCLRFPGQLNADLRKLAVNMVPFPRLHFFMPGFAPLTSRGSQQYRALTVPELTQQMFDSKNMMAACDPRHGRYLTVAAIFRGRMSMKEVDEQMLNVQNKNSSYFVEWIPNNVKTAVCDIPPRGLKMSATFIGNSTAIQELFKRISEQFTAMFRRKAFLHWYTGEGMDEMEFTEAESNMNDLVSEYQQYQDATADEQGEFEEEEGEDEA

Take `c1cc(Nc2ncnc3cc4c(cc23)OCCO4)cc(-c2ccc[nH]2)c1` [Compound 9, (7,8-Dihydro[1,4]dioxino[2,3-g]quinazolin-4-yl)-[3′-(pyrrol-2″-yl)phenyl]amine Hydrochloride]: the inhibition at 5 µM in assay [1] came out at 33 ± 7%. In the case of `Cl.c1cc(Nc2ncnc3cc4c(cc23)OCCO4)cc(-c2cccs2)c1` [Compound 5, (7,8-Dihydro[1,4]dioxino[2,3-g]quinazolin-4-yl)-[3′-(thien-2″-yl)phenyl]amine Hydrochloride], the inhibition at 5 µM in assay [1] came to 75 ± 0.8%. The “proportion of cells arrested at G2/M compared to control cells” value in assay [2] is reported as “significantly increased”.

For `CC(=O)O[C@H]1C(=O)[C@@]2(C)[C@H]([C@H](OC(=O)c3ccccc3)[C@]3(O)C[C@H](OC(=O)[C@H](O)[C@@H](NC(=O)c4ccccc4)c4ccccc4)C(C)=C1C3(C)C)[C@]1(OC(C)=O)CO[C@@H]1C[C@@H]2O` [paclitaxel], the EC50 was found to be 0.0055 ± 0.0007 µM in assay [3] and 5 µM in assay [4]. In the case of `c1ccc(-c2cccc(Nc3ncnc4cc5c(cc34)OCCCO5)c2)cc1` [Compound 3], the inhibition at 5 µM in assay [1] was 34 ± 1%. Still for that read-out and setting: the value for `c1ccc(-c2cccc(Nc3ncnc4cc5c(cc34)OCCO5)c2)nc1` [Compound 6, (7,8-Dihydro[1,4]dioxino[2,3-g]quinazolin-4-yl)-[3′-(pyridin-yl-2″-yl)phenyl]amine Hydrochloride] was 25 ± 4%. As for `c1ccc(-c2cccc(Nc3ncnc4cc5c(cc34)OCCO5)c2)cc1` [Compound 2], in assay [1], the inhibition at 5 µM amounted to 41 ± 7%. Further, the EC50 in assay [4] worked out at 0.35 ± 0.08 µM. For `c1ccc(-c2cccc(Nc3ncnc4cc5c(cc34)OCO5)c2)cc1` [Compound 1], in assay [1], the inhibition at 5 µM is 72 ± 0.4%. In assay [2], the “proportion of cells arrested at G2/M compared to control cells” value is on record as “significantly increased”. As for `COc1ccc(/C=C\c2cc(OC)c(OC)c(OC)c2)cc1O` [CA-4, combretastatin A-4], the figures for the EC50 in assay [3] and in assay [4] were 0.018 ± 0.004 µM and 0.013 ± 0.004 µM, respectively.

Values taken from PMC4086859 (Journal of medicinal chemistry, 2014).
